According to patent publication EP4748847A1, “PEPTIDE COMPLEX HAVING VEGFR -2 AGONIST ACTIVITY” (Peptidream Inc, priority 2023, dated 2025):
Where no end group is shown, it is not given here.

Key:
[1] = system: ERK; test: pERK AlphaLISA assay (ERK phosphorylation, p-Erk1/2 Thr202/Tyr204) in HUVEC lysate; assay type: cell-based, human; conditions: HUVEC lysate of the pVEGFR assay; % activity, maximum VEGF165a signal = 100%, unstimulated = 0%; peptide 10, 100 nM (dimer structures 2-41)
Description: To evaluate the intracellular signaling activation ability of the VEGFR-2 agonist peptides of the present invention, ERK phosphorylation was verified. Using the lysate employed in the pVEGFR AlphaLISA assay, the assay was performed according to the protocol of the AlphaLISA SureFire Ultra p-Erk1/2 (Thr202/Tyr204) Assay Kit (PerkinElmer). Signal detection was performed using a SpectraMax Paradigm multimode microplate reader (Molecular Devices). The obtained signals were analyzed using GraphPad Prism, and % activity was calculated with the maximum signal induced by VEGF165a set as 100% and the unstimulated control as 0%.
The VEGF165a concentration was evaluated at five points (0.08, 0.31, 1.25, 5, 20 nM) using 1/4-fold dilutions starting from 20 nM to determine the maximum value (100%). Peptide concentrations tested were: 3.2, 16, 80 nM for dimer structure […], 100 nM for dimer structures numbers 2-41; and 1.25, 5, 20 nM for dimer structures numbers 42-57.
For % activity, peptides showing ≥50% activity at 3.2 nM were designated 1-A, those showing ≥50% activity at 16 nM were designated 1-B, those showing ≥50% activity at 80 nM were designated 1-C, and those showing ≥1% but <50% activity at 80 nM were designated 1-D. […]

[2] = molecular target: T1, VEGFR-2 (Homo sapiens, UniProt P35968); test: pVEGFR AlphaLISA assay (VEGFR-2 phosphorylation, p-Tyr1175) in HUVECs; assay type: cell-based; conditions: 10 minutes stimulation, % activity, maximum VEGF165a signal = 100%, unstimulated = 0%, peptide 10, 100 nM (dimer structures 2-41)
T1 construct: endogenous in cells; host or cells: HUVEC
Summary of the method: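 HUVECs grown 2 days, starved 18 hours in EBM-2 with 0.5% FBS, then stimulated 10 minutes at 37°C with peptide or VEGF165a (0.08–20 nM). VEGFR-2 p-Tyr1175 in lysates read by AlphaLISA; % activity scaled to maximal VEGF165a signal (100%) and unstimulated control (0%), binned by activity at tested peptide concentrations.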

[3] = system: HUVEC; test: HUVEC proliferation promotion evaluation (CellTiter-Glo); assay type: cell-based, human; conditions: 2 days culture, % activity, maximum VEGF165a signal = 100%, peptide 1, 10, 100 nM
Description: To evaluate the biological activity of the VEGFR-2 agonist peptide of the present invention, an HUVEC proliferation promotion evaluation was conducted. HUVECs cultured as described above were detached using Tryple (Thermo Fisher Scientific). They were then seeded at 10,000 cells per well onto Nunc™ MicroWell™ 96 -Well, Nunclon Delta-Treated, Flat-Bottom Microplate (cat. #136101) . After 24 hours, cells were starved by replacing with EBM-2 medium (LONZA) containing 0.5% FBS (Thermo Fisher Scientific), 0.1% Heparin (included with the above Lonza CC-3162), and 0.1% Gentamicin (Nacalai) and cultured for 18 hours. Subsequently, Recombinant Human VEGF 165a Protein (R&D Systems) or the peptide was added, and the cells were cultured for 2 days at 37°C in a CO2 incubator. Assays were performed according to the CellTiter-Glo (Promega) kit protocol, and signals were detected using a SpectraMax Paradigm multimode microplate reader (Molecular Devices) was used for signal detection. The obtained signals were analyzed using GraphPad Prism, and % activity was calculated with the maximum signal induced by VEGF165a set as 100% and the unstimulated control as 0%.
The VEGF165a concentration was evaluated at six points (0.006, 0.03, 0.16, 0.8, 4, 20 nM) using 1/5-fold dilutions starting from 20 nM to determine the maximum value (100%). […]

T1 sequence (P35968 20-1356): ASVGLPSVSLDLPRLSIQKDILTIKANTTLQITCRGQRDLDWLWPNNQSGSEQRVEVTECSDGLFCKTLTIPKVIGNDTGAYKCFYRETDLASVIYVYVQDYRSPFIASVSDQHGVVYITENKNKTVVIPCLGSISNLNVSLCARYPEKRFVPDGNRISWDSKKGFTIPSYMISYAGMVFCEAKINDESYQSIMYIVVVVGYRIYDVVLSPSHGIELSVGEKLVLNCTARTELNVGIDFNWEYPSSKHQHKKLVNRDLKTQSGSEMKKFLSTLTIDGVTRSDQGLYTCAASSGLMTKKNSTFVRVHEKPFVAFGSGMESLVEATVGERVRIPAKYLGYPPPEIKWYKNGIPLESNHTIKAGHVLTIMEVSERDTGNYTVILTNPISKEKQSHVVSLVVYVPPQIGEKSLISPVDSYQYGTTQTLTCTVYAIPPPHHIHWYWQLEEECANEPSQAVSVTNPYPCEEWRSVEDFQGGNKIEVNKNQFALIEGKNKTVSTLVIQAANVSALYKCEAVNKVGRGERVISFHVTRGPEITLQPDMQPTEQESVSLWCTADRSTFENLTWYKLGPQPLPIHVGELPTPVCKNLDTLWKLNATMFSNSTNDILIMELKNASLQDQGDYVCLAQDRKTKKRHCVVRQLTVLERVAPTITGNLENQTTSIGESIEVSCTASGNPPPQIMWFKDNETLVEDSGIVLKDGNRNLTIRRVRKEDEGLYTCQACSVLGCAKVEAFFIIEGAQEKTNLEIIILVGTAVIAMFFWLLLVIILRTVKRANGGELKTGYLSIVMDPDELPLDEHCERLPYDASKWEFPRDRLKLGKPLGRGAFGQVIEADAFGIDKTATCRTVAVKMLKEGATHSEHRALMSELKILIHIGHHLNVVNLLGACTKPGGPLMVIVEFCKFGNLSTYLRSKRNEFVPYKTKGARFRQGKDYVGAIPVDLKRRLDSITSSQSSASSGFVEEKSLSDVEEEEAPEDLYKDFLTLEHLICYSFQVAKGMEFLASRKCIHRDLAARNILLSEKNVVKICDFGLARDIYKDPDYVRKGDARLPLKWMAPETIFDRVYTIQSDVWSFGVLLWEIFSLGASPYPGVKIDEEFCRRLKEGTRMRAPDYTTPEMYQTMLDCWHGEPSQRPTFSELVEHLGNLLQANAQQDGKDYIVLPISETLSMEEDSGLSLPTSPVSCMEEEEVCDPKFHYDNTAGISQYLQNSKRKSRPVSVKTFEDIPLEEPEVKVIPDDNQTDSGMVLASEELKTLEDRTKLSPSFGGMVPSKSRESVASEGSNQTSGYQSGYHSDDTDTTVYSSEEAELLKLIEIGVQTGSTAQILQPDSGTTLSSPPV

Substance: Dimer Structure No. 1: complex of Peptide Sequence No. 3 (W-W-V-D-V-Q-D-D-L-Y-F-V-D-C-G) and Linker Structure No. 1 (PEG12c-K-PEG12c), Conjugation No. 15 (WWVDVQDDLYFVDCG; also: dimer via PEG12c-K-PEG12c linker)
- pERK Assay Results [1]: 2-B (50% or more activity at 100 nM)
- pVEGFR2 Assay Results [2]: 2-C (1% or more but less than 50% activity at 100 nM)
- proliferation [3]: 4-D (≥1% but <50% activity at 100 nM)
